Assay results published in patent publication US20150196514A1, “METHOD OF TREATING CARDIOVASCULAR EVENTS USING COLCHICINE CONCURRENTLY WITH AN ANTITHROMBOTIC DRUG” (Murray and Poole Enterprises Limited, priority 2012, published 2015).

Legend:
[1] = tested on: patients with acute pericarditis; settings: at 18 months, colchicine 1.0 to 2.0 mg first day then 0.5 to 1.0 mg/day for 3 months added to conventional treatment, p=0.004; cited from earlier work
[2] = tested on: patients with a first episode of recurrent pericarditis; settings: at 18 months, colchicine 1.0-2.0 mg first day then 0.5-1.0 mg/d for 6 months added to conventional treatment; cited from earlier work
[3] = tested on: patients with clinically stable coronary disease; test: LoDoCo Trial: colchicine 0.5 mg/day added to standard secondary prevention therapies
Method: To assess the therapeutic effects of an immediate release formulation in patients with cardiovascular disease, a prospective randomized observer blinded end-point trial was conducted to determine whether adding 0.5 mg/day of colchicine to standard secondary prevention therapies including aspirin and high dose statins reduces the risk of cardiovascular events in patients with objectively diagnosed and clinically stable coronary disease.
Eligible consenting patients with established coronary disease presenting for routine clinical review were randomized to receive colchicine 0.5 mg/day or no colchicine without any other change to their medical therapy. All outcomes were evaluated by an experienced adjudicator blinded to the treatment allocation.
It was planned to recruit a study population that would include 500 patients planned (532 patients randomized as 32 dropped out early), 250 randomized to the control group and 250 patients randomized to treatment who were tolerant of colchicine for at least 4 weeks after the date of their randomization. Patients were eligible for inclusion if they met each of the following criteria: 1) angiographically proven coronary disease; 2) aged 35 to 85 years; 3) clinically stable for at least 6 months, 4) no major competing co-morbidities or contra-indication to colchicine therapy, 5) considered to be compliant with therapy and attending routine cardiology follow up appointments, and 6) willing to be consented and randomized into the study. Patients with a history of bypass surgery were only eligible if they had undergone bypass surgery more than 10 years before, or had angiographic evidence of graft failure or had undergone stenting since their bypass surgery. All patients signed informed consent before randomization.
The randomization sequence was computer generated, kept concealed from the investigators at all times and was managed by a research assistant who had no involvement in the evaluation or management of study patients. […] Despite electing to use the lowest dose of colchicine available, it was anticipated that a number of patients would withdraw from therapy early after randomization due to gastrointestinal side effects. In order to ensure that the requisite number of patients in the treatment arm were actually tolerant of treatment, the protocol allowed for the research assistant to assign a newly recruited patient to treatment if a patient discontinued colchicine due to side effects in the first month. Patients who were intolerant to therapy remained in the study, and were followed in the usual manner and included in the primary intention to treat analysis.
The drug was dispensed by their usual chemist, and if requested, patients were reimbursed for the cost of these scripts. All other treatments were continued as usual.
Patient compliance with treatment and outcome data were collected at routine follow up visits and at the time of any unplanned hospital admission. An acute coronary syndrome (ACS) was defined as either (a) Acute Myocardial Infarction (AMI), as evidenced by acute ischemic chest pain associated with a rise in serum troponin above the upper limit of normal or (b) Unstable Angina (UA), as evidenced by a recent acceleration of the patient's angina unassociated with a rise in serum troponin but associated with angiographic evidence of a change in the patient's coronary anatomy. […] The ACS was characterized as being stent-related if there was evidence of significant in-stent stenosis or acute stent thrombosis. Out of Hospital Cardiac Arrest was defined as either a sudden death as evidenced on the patient's death certificate, or a non-fatal out of hospital cardiac arrest, defined as a recovery from sudden collapse associated with documented asystole, ventricular tachycardia or ventricular fibrillation.

[4] = No treatment (no antithrombotic drug), colchicine group 1
[5] = Treated with Aspirin + clopidogrel + warfarin, colchicine group 2
[6] = Treated with Aspirin + clopidogrel, colchicine group 33
[7] = Treated with Aspirin + warfarin, colchicine group 6
[8] = Treated with Aspirin alone, colchicine group 173
[9] = Treated with Clopidogrel alone or warfarin alone (no aspirin), colchicine group 28
[10] = Treated with Clopidogrel alone, colchicine group 12
[11] = Treated with Warfarin alone, colchicine group 16
[12] = Treated with a least one antiplatelet drug (at least aspirin, clopidogrel or combinations thereof), colchicine group 226
[13] = Treated with at least aspirin, colchicine group 214
[14] = Treated with at least one antithrombotic drugs (at least aspirin, clopidogrel or warfarin or combinations thereof), colchicine group 242
[15] = intention to treat, 282 patients

For `CC(=O)Oc1ccccc1C(=O)O` [aspirin], the recurrence rate [1] is listed as 32.3% and the “recurrence rate (actuarial rates)” value [2] is listed as 50.6%.
In the case of `COc1cc2c(c(OC)c1OC)-c1ccc(OC)c(=O)cc1[C@@H](NC(C)=O)CC2` [colchicine, N[5,6,7,9-tetrahydro-1,2,3,10-tetratmethoxy 9-oxobenzo[a]heptalen-7-yl],(S)-acetamide], the recurrence rate [1] is given as 10.7%, the “recurrence rate (actuarial rates)” value [2] is given as 24.0% and the “early intolerance due to gastrointestinal side effects, incidence” value ([3]; 282 randomized to treatment) is given as 11%. The “Primary Outcome, number of patients” value [3, 4] was 0 (0%), the “Primary Outcome, percent” value [3, 4] was 0 (0%) and the “Primary Outcome, number of patients” value ([3]; Total*, colchicine group 243) was 11. The “Primary Outcome, percent” value ([3]; Total*, colchicine group 243) was 4.5%, the “Primary Outcome, number of patients” value [3, 5] was 0 (0%) and the “Primary Outcome, percent” value [3, 5] was 0 (0%). The “Primary Outcome, number of patients” value [3, 6] was 3, the “Primary Outcome, percent” value [3, 6] was 9% and the “Primary Outcome, number of patients” value [3, 7] was 0 (0%). For the same compound, the “Primary Outcome, percent” value [3, 7] was 0 (0%), the “Primary Outcome, number of patients” value [3, 8] was 7 and the “Primary Outcome, percent” value [3, 8] was 4%. The “Primary Outcome, number of patients” value [3, 9] was 1, the “Primary Outcome, percent” value [3, 9] was 3.45% and the “Primary Outcome, number of patients” value [3, 10] was 1. The “Primary Outcome, percent” value [3, 10] was 8.3%, the “Primary Outcome, number of patients” value [3, 11] was 0 (0%) and the “Primary Outcome, percent” value [3, 11] was 0 (0%). For the same compound, the “Primary Outcome, number of patients” value [3, 12] was 11, the “Primary Outcome, percent” value [3, 12] was 4.9% and the “Primary Outcome, number of patients” value [3, 13] was 10. For the same compound, the “Primary Outcome, percent” value [3, 13] was 4.67%, the “Primary Outcome, number of patients” value [3, 14] was 11 and the “Primary Outcome, percent” value [3, 14] was 4.5%. For the same compound, the “risk of a cardiovascular event, including an ACS, out of hospital cardiac arrest and non-cardio-embolic ischemic stroke” value ([3]; colchicine 0.5 mg/day added to standard therapy in patients with stable coronary disease) was “significantly reduces the risk”, the “patients who died of non-cardiac causes” value ([3]; colchicine group) was 4 patients and the patients who died ([3]; colchicine group, study period) was 4 patients. For the same compound, the “ACS unrelated to stent disease associated with UA, incidence” value [3, 15] was 1.8%, the “ACS unrelated to stent disease associated with an AMI, incidence” value [3, 15] was 1.4% and the “ACS unrelated to stent disease, incidence” value [3, 15] was 3.2%. The “ACS, incidence” value [3, 15] was 4.6%, the “primary outcome, incidence” value ([3]; intention to treat, 282 patients assigned to colchicine 0.5 mg/day, median follow up 36 months) was 5.3% and the “primary outcome, hazard ratio” value ([3]; intention to treat, colchicine vs control group, 95% CI 0.18-0.59, p<0.001) was 0.33. The “ACS unrelated to stent disease associated with UA, patients” value ([3]; intention to treat, of 282) was 5, the “ACS unrelated to stent disease associated with an AMI, patients” value ([3]; intention to treat, of 282) was 4 and the “ACS unrelated to stent disease, patients” value ([3]; intention to treat, of 282) was 9. For the same compound, the “patients presenting with an ACS” value ([3]; intention to treat, of 282) was 13, the “primary outcome (ACS, out of hospital cardiac arrest or non-cardio-embolic ischemic stroke), patients with event” value ([3]; intention to treat, of 282 patients assigned to colchicine 0.5 mg/day, median follow up 36 months) was 15 patients and the “early intolerance due to gastrointestinal side effects, patients” value ([3]; of 282 randomized to treatment) was 32. For the same compound, the “events (primary outcome), hazard ratio” value ([3]; on-treatment vs control, 95% CI 0.15-0.56, p<0.001) was 0.29, the “events (primary outcome), incidence” value ([3]; on-treatment: compliant and tolerant to therapy beyond the first month, 243 patients) was 4.5% and the “events (primary outcome), patients” value ([3]; on-treatment: compliant and tolerant to therapy beyond the first month, of 243) was 11. For the same compound, the “stent related ACS with evidence of acute stent thrombosis, patients” value ([3]; per group) was 2, the “stent related ACS with evidence of significant in-stent stenosis, patients” value ([3]; per group) was 2 and the “number needed to treat” value ([3]; primary outcome, intention to treat) was 11. The “out of hospital cardiac arrest and non-cardio-embolic ischemic stroke” value ([3]; treatment group vs control, infrequent events) was “reduced”, the “AMI unrelated to stent disease, hazard ratio” value ([3]; vs control, 95% CI 0.08-0.76, p=0.014) was 0.25 and the “UA unrelated to stent disease, hazard ratio” value ([3]; vs control, 95% CI 0.10-0.75, p=0.011) was 0.27. The “ACS unrelated to stent disease, hazard ratio” value ([3]; vs control, 95% CI 0.12-0.55, p<0.001) was 0.26 and the “ACS, hazard ratio” value ([3]; vs control, 95% CI 0.18-0.63, p<0.001) was 0.33.
